Assay results: US4724236A, “5,11-dihydro-6H-pyrido(2,3-B)(1,4)benzodiazepin-6-ones substituted in the 11-position, processes for preparing them and pharmaceutical compositions containing these compounds” (Karl Thomae GmbH, priority 1985, dated 1988)

How the values were obtained:
[1] = system: platelet clots (mesenterial vein); test: Effect on platelet clots in rats (electrically induced mesenterial clots, Poliwoda et al.); type: in vivo, rat
Experimental: Effect on platelet clots in the rats
Essentially the method described by Poliwoda, Lilli, Hagemann, Schyma, in Z. ges. exp. Med. 145, 252, (1968) was used.
Male SPF rats (Chbb:THOM) weighing from 70 to 90 g, given free access to food (Altromin®), and water up until the start of the test, were anaesthetised with Nembutal administered by intraperitoneal route (50 to 60 mg/kg of pentobarbital-Na). In order to avoid hypothermia they were kept on a heated test bench (37° C.).
After the abdomen had been opened up with a transverse cut the loop of small intestine was taken out and fixed and a mesenterial vein with a diameter of 300 microns was placed under a binocular operation microscope with ×40 magnification. A monopolar V4A steel electrode embedded in glass, with a diameter of 100 microns at the tip, was applied to the vein as stimulating cathode. The anode was applied to the same vessel opposite the cathode. Stimulation was effected with 150 volts of direct current for a period of 100 microsec. After stimulation, the observation area was continuously rinsed with warm (37° C.) physiological saline solution.
The formation and growth of the clot was monitored under the microscope over a period of 20 minutes. Throughout the entire observation period, the percentage narrowing of the diameter of the vessel by the clot was determined and noted initially at 10 second intervals and later every minute. The results were recorded in terms of time in a coordinate system. […]
The area under the curve of the animals treated with the test substance was compared with that of the control animals. The reduction of the size of the clot under the influence of the substance was determined as the percentage reduction in the average value of the area under the curve of the substance-treated animals over the entire observation period compared with the average value of the controls.
The significance of the reduction was calculated by Student's t test for independent random samples (CAVALLI-SFORZA: Biometrie, G. Fischer-Verlag, Stuttgart 1969, page 72).

[2] = system: heart rate, conscious dog; test: Heart rate-increasing activity (tachycardia) in the conscious dog; type: in vivo; conditions: Canis lupus familiaris, iv, dose for increase of 50 beats/minute, 3 to 5 dogs, read-out: Tachycardia (dog) ED50
Experimental: 1. tachycardiac effect in conscious dogs,
1. Heart rate-increasing activity in the conscious dog
The substances were injected intravenously and the heart rate was recorded using a tachygraph. After a control interval, increasing doses of the compound were administered in order to increase the heart rate. The next dose was injected when the effect of the preceding dose was no longer visible. The dosage of a substance which brought about an increase of 50 beats/minute (ED50) was determined graphically. Each substance was tested on 3 to 5 dogs.

[3] = system: oxotremorin-induced saliva secretion; test: Inhibition of oxotremorin-stimulated salivation in the rat; type: in vivo; conditions: iv, 15 minutes before oxotremorin 0.083 mg/kg i.v.
Experimental: 2. inhibition of salivation stimulated by oxotremorin in the rat and
2. Inhibition of salivation in the rat
10 female albino rats (strain Crl:COBS-CD (SD) BR) having a body weight from 120 to 150 g, were used for each treatment group, and 24 hours before the start of the test the rats were deprived of food but given free access to drinking water.
In order to determine the muscarinic effect of oxotremorin on each of the symptoms being investigated in preliminary tests, a dosage-activity curve was drawn up with at least 3 dosages for each symptom.
When testing antimuscarinic substances, the oxotremorin dose used was that which had triggered the symptom to be influenced in 90 to 100% of the animals in the preliminary test 5.
Secretion of saliva: 0.083 mg/kg i.v.
Each antimuscarinic substance was administered intraveneously in uniformly graduated dosages 15 minutes before the administration of oxotremorin. Control groups were given the solvent and suspension agent in corresponding amounts instead of the test substance.
The results were expressed as the percentage inhibition of the oxotremorin effect (percentage of animals without the symptom in question). ED50 values were determined by the method of LITCHFIELD and WILCOXON (J. Pharmacol. Exp. Ther. 96, 99, 1949).

pupil size = test: Mydriatic effect on the rat (increase in pupil size); type: in vivo; conditions: i.v.; printed as ED50 in Table I; method defines ED200 (dose doubling pupil diameter)
Experimental: 3. Mydriatic activity in the rat.
3. Mydriatic effect on the rat
The mydriasis was determined by measuring the increase in pupil size after intravenous injection of the test substance. The pupil size was measured with a microscope. The measurements were taken before and at various times (15, 45 and 75 minutes) after the injection of different doses of the substance. The results were expressed as the ED200. That is the dose which doubled the diameter of the pupil, compared with the basal value. The maximum effect was usually observed between 15 and 45 minutes after intravenous administration.

[4] = biological target: muscarinic receptors (cortex); test: Binding to muscarinic receptors, cerebral cortex (3H-NMS displacement); conditions: rat cerebral cortex homogenate, pH 7.4, 30° C., 45 minutes, read-out: Receptor binding test IC50, Cortex
Experimental: (§1) B. Studies of binding to muscarinic receptors: determining the IC50 value
(§2) Male Sprague-Dawley rats weighing from 180-220 g served as organ donors. After the heart, stomach and cerebral cortex had been removed, all other procedures were carried out in ice-cold Hepes-HCl buffer (pH 7.4; 100 m molar NaCl, 10 m molar MgCl2). The whole heart was cut up with scissors. All the organs were then homogenised in a Potter apparatus.
(§3) For the binding test the homogenised organs were diluted as follows:
(§4) The homogenised organs were incubated at a specific concentration of the radioactive ligand and a series of concentrations of the non-radioactive test substances in an Eppendorf centrifugal test tube at 30° C. The period of incubation was 45 minutes. 0.3 micro-mol of ^3 H-N-methylscopolamine (^3 H-NMS) was used as the radioactive ligand. After incubation had been ended by centrifuging at 14000 g, the radioactivity in the pellet was determined. It represents the sum of specific and non-specific binding of ^3 H-NMS. The proportion of non-specific binding was defined as the radioactivity which was bound in the presence of 1 micro-mol of quinuclidinyl benzylate. Fourfold measurements were taken in each case. The IC50 values of the non-labelled test substances were determined graphically. […]

[5] = biological target: T1, muscarinic receptors (heart) (Rattus norvegicus, UniProt P10980); test: Binding to muscarinic receptors, heart (3H-NMS displacement); conditions: rat whole heart homogenate, pH 7.4, 30° C., 45 minutes, read-out: Receptor binding test IC50, Heart
T1 construct: The whole heart was cut up with scissors; All the organs were then homogenised; from tissue; host or cells: rat whole heart homogenate (male Sprague-Dawley)
T1 sequence (P10980 1-466): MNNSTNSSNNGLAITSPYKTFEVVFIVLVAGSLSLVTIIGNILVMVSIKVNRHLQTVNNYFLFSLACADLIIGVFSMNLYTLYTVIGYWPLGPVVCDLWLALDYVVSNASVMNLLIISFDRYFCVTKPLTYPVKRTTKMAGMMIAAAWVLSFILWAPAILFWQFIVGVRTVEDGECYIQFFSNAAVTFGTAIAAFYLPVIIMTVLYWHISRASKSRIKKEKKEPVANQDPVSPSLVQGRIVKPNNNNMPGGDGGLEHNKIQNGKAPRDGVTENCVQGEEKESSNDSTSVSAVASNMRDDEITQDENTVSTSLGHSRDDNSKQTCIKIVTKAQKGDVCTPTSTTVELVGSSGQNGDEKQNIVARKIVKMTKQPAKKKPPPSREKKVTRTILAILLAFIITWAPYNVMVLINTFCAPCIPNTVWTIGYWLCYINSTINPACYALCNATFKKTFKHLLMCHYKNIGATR
Experimental: as §1, §2, §3, §4

## CC(CC#CCN1CCN(C)CC1)C(=O)N1c2ccccc2C(=O)Nc2cccnc21.Cl.Cl (stereo not shown) [Substance C in form of dihydrochloride, 5,11-Dihydro-11-[1-oxo-2-methyl-6-(4-methyl-1-piperazinyl)-4-hexynyl]-6H-pyrido[2,3-b][1,4]benzodiazepin-6-one dihydrochloride]
[1]; 1 mg/kg i.v., n = 5, 20 minutes, significant reduction, t test, p < 0.02, control 1736.0 ± 124.2
  "area under curve" units of area, average ± SD: 1230.0 ± 188.0 units of area
[1]; 1 mg/kg i.v., n = 5, from area under curve versus controls, p < 0.02
  percentage reduction compared with controls (size of clot): 29.2%
[1]; rats
  antithrombotic activity (in words): marked antithrombotic activity

## O=C1Nc2cccnc2N(C(=O)CCC#CCN2CCCCC2)c2ccccc21 [Substance A, 5,11-dihydro-11-[1-oxo-6-(1-piperidinyl)-4-hexynyl]-6H-pyrido[2,3-b][1,4]benzodiazepin-6-one]
[2]
  ED (50 beats/min increase): 0.044 mg/kg
[3]
  ED50: 2.05 mg/kg
Pupil size
  Mydriasis (rat) ED200 (dose doubling pupil diameter): ~ 3000 micro g/kg
[4]
  IC50: 1200 nM
[5]
  IC50: 120 nM

## O=C1Nc2cccnc2N(C(=O)CCC#CCN2CCCCCC2)c2ccccc21 [Substance B, 5,11-dihydro-11-[1-oxo-6-(hexahydro-1H-azepin-1-yl)-4-hexynyl]-6H-pyrido[2,3-b][1,4]benzodiazepin-6-one]
[2]
  ED (50 beats/min increase): 0.028 mg/kg
[3]
  ED50: 1.14 mg/kg
Pupil size
  Mydriasis (rat) ED200 (dose doubling pupil diameter): 2189 micro g/kg
[4]
  IC50: 220 nM
[5]
  IC50: 30 nM
